Test: in vitro drug release from a PBMA-coated stent
Assay type: physicochemical
Conditions: over 24 hours, everolimus in PBMA drug coat, drug:polymer ratio 1 to 1.25, with 40-μg PBMA topcoat (0.3 micron coating thickness) on 18-mm medium stent
Excerpt: Of import to the present invention is that a polymer's mesh size can be altered by the formation of pores within the polymer itself. One means of accomplishing this is to add such a large concentration of drug to the polymer that the drug phase separates out. Thus, during stent synthesis, drug is released, thereby forming pores within the polymer. However, a topcoat is often added to control drug release and prevent an initial bolus or burst release of drug. Unfortunately, sometimes even the thinnest topcoat that can be applied leads to a drug release that is too slow to be therapeutically effective. One example is everolimus in a PBMA drug coat with a PBMA topcoat. For example, it has been shown that a thin 40-μg PBMA topcoat on an 18-mm medium stent, i.e., a 0.3 micron coating thickness, with a drug:polymer ratio of 1 to 1.25, gave only 7.1% drug release over 24 hours in an in vitro experiment.

drug release: 7.1%
Structure (SMILES): CO[C@H]1C[C@@H]2CC[C@@H](C)[C@@](O)(O2)C(=O)C(=O)N2CCCC[C@H]2C(=O)O[C@H]([C@H](C)C[C@@H]2CC[C@@H](OCCO)[C@H](OC)C2)CC(=O)[C@H](C)/C=C(\C)[C@@H](O)[C@@H](OC)C(=O)[C@H](C)C[C@H](C)/C=C/C=C/C=C/1C [everolimus]
